{"source": "patent US10023590B2", "about": "“Substituted pyridine compounds having herbicidal activity” (BASF SE, priority 2014, dated 2018)", "format_in_all_cases": "in vivo", "key": {"Abutilon theophrasti": {"system": "Abutilon theophrasti", "test": "Greenhouse post-emergence herbicidal activity, ABUTH", "settings": "ABUTH; for pest or weed control at 2000 g/ha: 2 kg/ha, scale 0 to 100, read-out: Herbicidal activity", "excerpt": "(§1) The culture containers used were plastic flowerpots containing loamy sand with approximately 3.0% of humus as the substrate. The seeds of the test plants were sown separately for each species.\n(§2) For the post-emergence treatment, the test plants were first grown to a height of 3 to 15 cm, depending on the plant habit, and only then treated with the active ingredients which had been suspended or emulsified in water. For this purpose, the test plants were either sown directly and grown in the same containers, or they were first grown separately as seedlings and transplanted into the test containers a few days prior to treatment.\n(§3) Depending on the species, the plants were kept at 10-25° C. or 20-35° C., respectively.\n(§4) The test period extended over 2 to 4 weeks. During this time, the plants were tended, and their response to the individual treatments was evaluated.\n(§5) Evaluation was carried out using a scale from 0 to 100. 100 means no emergence of the plants, or complete destruction of at least the aerial moieties, and 0 means no damage, or normal course of growth. A good herbicidal activity is given at values of at least 70 and a very good herbicidal activity is given at values of at least 85."}, "Amaranthus retroflexus": {"system": "Amaranthus retroflexus", "test": "Greenhouse post-emergence herbicidal activity, AMARE", "settings": "AMARE; for pest or weed control at 2000 g/ha: 2 kg/ha, scale 0 to 100, read-out: Herbicidal activity", "excerpt": "as §1, §2, §3, §4, §5"}, "Capsella bursa-pastoris": {"system": "Capsella bursa-pastoris", "test": "Greenhouse post-emergence herbicidal activity, CAPBP", "settings": "0.063 kg/ha, scale 0 to 100", "excerpt": "as §1, §2, §3, §4, §5"}, "Chenopodium album": {"system": "Chenopodium album", "test": "Greenhouse post-emergence herbicidal activity, CHEAL", "settings": "scale 0 to 100; for pest or weed control at 31 g/ha: 0.031 kg/ha; for pest or weed control at 125 g/ha: 0.125 kg/ha; for pest or weed control at 63 g/ha: 0.063 kg/ha", "excerpt": "as §1, §2, §3, §4, §5"}, "Cirsium arvense": {"system": "Cirsium arvense", "test": "Greenhouse post-emergence herbicidal activity, CIRAR", "settings": "CIRAR", "excerpt": "as §1, §2, §3, §4, §5"}, "Echinocloa crus-galli": {"system": "Echinocloa crus-galli", "test": "Greenhouse post-emergence herbicidal activity, ECHCG", "settings": "Echinochloa crus-galli, ECHCG", "excerpt": "as §1, §2, §3, §4, §5"}, "Setaria viridis": {"system": "Setaria viridis", "test": "Greenhouse post-emergence herbicidal activity, SETVI", "settings": "2 kg/ha, scale 0 to 100", "excerpt": "as §1, §2, §3, §4, §5"}, "Zea mays": {"system": "Zea mays", "test": "Greenhouse post-emergence herbicidal activity on crop ZEAMX (corn, maize)", "design": "key: 0 = no damage/normal growth, 100 = no emergence or complete destruction", "excerpt": "as §1, §2, §3, §4, §5"}, "Erigeron canadensis": {"system": "Erigeron canadensis", "test": "Greenhouse post-emergence herbicidal activity, ERICA", "excerpt": "as §1, §2, §3, §4, §5"}, "Oryza sativa": {"system": "Oryza sativa", "test": "Greenhouse post-emergence herbicidal activity on crop ORYSA (rice)", "excerpt": "as §1, §2, §3, §4, §5"}, "Eriochloa villosa": {"system": "Eriochloa villosa", "test": "Greenhouse post-emergence herbicidal activity, ERBVI", "settings": "0.031 kg/ha, scale 0 to 100", "excerpt": "as §1, §2, §3, §4, §5"}, "Setaria faberi": {"system": "Setaria faberi", "test": "Greenhouse post-emergence herbicidal activity, SETFA", "settings": "0.25 kg/ha, scale 0 to 100", "excerpt": "as §1, §2, §3, §4, §5"}, "[1]": {"settings": "ZEAMX (corn, crop), 0.063 kg/ha, scale 0 to 100"}}, "data": [{"smiles": "CCS(=O)(=O)N(C)c1c(Cl)ccc(C2=C(O)c3ncccc3C(C)(C)S2(=O)=O)c1Cl", "note": "[I-19, N-[2,6-dichloro-3-(8-hydroxy-5,5-dimethyl-6,6-dioxo-thiopyrano[4,3-b]pyridin-7-yl)phenyl]-N-methyl-ethanesulfonamide]", "values": [{"measurement": "pest or weed control at 2000 g/ha", "setting": "Abutilon theophrasti", "value": 98, "unit": "%"}, {"measurement": "pest or weed control at 31 g/ha", "setting": "Amaranthus retroflexus; 0.031 kg/ha, scale 0 to 100", "value": 98, "unit": "%"}, {"measurement": "pest or weed control at 63 g/ha", "setting": "Amaranthus retroflexus; 0.063 kg/ha, scale 0 to 100", "value": 100, "unit": "%"}, {"measurement": "pest or weed control at 125 g/ha", "setting": "Amaranthus retroflexus; 0.125 kg/ha, scale 0 to 100", "value": 100, "unit": "%"}, {"measurement": "pest or weed control at 2000 g/ha", "setting": "Amaranthus retroflexus", "value": 100, "unit": "%"}, {"measurement": "Herbicidal activity", "setting": "Capsella bursa-pastoris", "value": 100}, {"measurement": "pest or weed control at 31 g/ha", "setting": "Chenopodium album", "value": 98, "unit": "%"}, {"measurement": "pest or weed control at 125 g/ha", "setting": "Chenopodium album", "value": 100, "unit": "%"}, {"measurement": "pest or weed control at 63 g/ha", "setting": "Cirsium arvense; 0.063 kg/ha, scale 0 to 100, read-out: Herbicidal activity", "value": 100, "unit": "%"}, {"measurement": "pest or weed control at 31 g/ha", "setting": "Echinocloa crus-galli; 0.031 kg/ha, scale 0 to 100", "value": 98, "unit": "%"}, {"measurement": "pest or weed control at 125 g/ha", "setting": "Echinocloa crus-galli; 0.125 kg/ha, scale 0 to 100", "value": 100, "unit": "%"}, {"measurement": "Herbicidal activity", "setting": "Setaria viridis", "value": 100}, {"measurement": "Herbicidal activity", "setting": "Zea mays; [1]", "value": 0}]}, {"smiles": "CN(c1c(Cl)ccc(C2=C(O)c3ncccc3C(C)(C)S2(=O)=O)c1Cl)S(=O)(=O)CC1CC1", "note": "[I-21, 1-cyclopropyl-N-[2,6-dichloro-3-(8-hydroxy-5,5-dimethyl-6,6-dioxo-thiopyrano[4,3-b]pyridin-7-yl)phenyl]-N-methyl-methanesulfonamide]", "values": [{"measurement": "pest or weed control at 2000 g/ha", "setting": "Abutilon theophrasti", "value": 100, "unit": "%"}, {"measurement": "pest or weed control at 31 g/ha", "setting": "Amaranthus retroflexus; 0.031 kg/ha, scale 0 to 100", "value": 98, "unit": "%"}, {"measurement": "pest or weed control at 63 g/ha", "setting": "Amaranthus retroflexus; 0.063 kg/ha, scale 0 to 100", "value": 98, "unit": "%"}, {"measurement": "pest or weed control at 125 g/ha", "setting": "Amaranthus retroflexus; 0.125 kg/ha, scale 0 to 100", "value": 100, "unit": "%"}, {"measurement": "pest or weed control at 2000 g/ha", "setting": "Amaranthus retroflexus", "value": 100, "unit": "%"}, {"measurement": "pest or weed control at 31 g/ha", "setting": "Chenopodium album", "value": 95, "unit": "%"}, {"measurement": "pest or weed control at 63 g/ha", "setting": "Chenopodium album", "value": 98, "unit": "%"}, {"measurement": "pest or weed control at 125 g/ha", "setting": "Cirsium arvense; 0.125 kg/ha, scale 0 to 100", "value": 100, "unit": "%"}, {"measurement": "pest or weed control at 31 g/ha", "setting": "Echinocloa crus-galli; 0.031 kg/ha, scale 0 to 100", "value": 98, "unit": "%"}, {"measurement": "pest or weed control at 2000 g/ha", "setting": "Echinocloa crus-galli; 2 kg/ha, scale 0 to 100, read-out: Herbicidal activity", "value": 100, "unit": "%"}, {"measurement": "Herbicidal activity", "setting": "Erigeron canadensis; 0.063 kg/ha, scale 0 to 100", "value": 100}, {"measurement": "Herbicidal activity", "setting": "Erigeron canadensis; 0.125 kg/ha, scale 0 to 100", "value": 100}, {"measurement": "Herbicidal activity", "setting": "Oryza sativa; ORYSA (rice, crop), 0.031 kg/ha, scale 0 to 100", "value": 0}, {"measurement": "Herbicidal activity", "setting": "Oryza sativa; ORYSA (rice, crop), 0.063 kg/ha, scale 0 to 100", "value": 30}, {"measurement": "Herbicidal activity", "setting": "Oryza sativa; ORYSA (rice, crop), 0.125 kg/ha, scale 0 to 100", "value": 45}]}, {"smiles": "CN(c1c(Cl)ccc(C2=C(O)c3ncccc3C(C)(C)S2(=O)=O)c1Cl)S(=O)(=O)C1CC1", "note": "[I-28, N-[2,6-dichloro-3-(8-hydroxy-5,5-dimethyl-6,6-dioxo-thiopyrano[4,3-b]pyridin-7-yl)phenyl]-N-methyl-cyclopropanesulfonamide]", "values": [{"measurement": "pest or weed control at 31 g/ha", "setting": "Amaranthus retroflexus; 0.031 kg/ha, scale 0 to 100", "value": 98, "unit": "%"}, {"measurement": "pest or weed control at 63 g/ha", "setting": "Amaranthus retroflexus; 0.063 kg/ha, scale 0 to 100", "value": 98, "unit": "%"}, {"measurement": "pest or weed control at 125 g/ha", "setting": "Amaranthus retroflexus; 0.125 kg/ha, scale 0 to 100", "value": 98, "unit": "%"}, {"measurement": "pest or weed control at 250 g/ha", "setting": "Amaranthus retroflexus; 0.25 kg/ha, scale 0 to 100", "value": 98, "unit": "%"}, {"measurement": "pest or weed control at 31 g/ha", "setting": "Chenopodium album", "value": 98, "unit": "%"}, {"measurement": "pest or weed control at 63 g/ha", "setting": "Chenopodium album", "value": 98, "unit": "%"}, {"measurement": "pest or weed control at 125 g/ha", "setting": "Chenopodium album", "value": 98, "unit": "%"}, {"measurement": "pest or weed control at 63 g/ha", "setting": "Echinocloa crus-galli; 0.063 kg/ha, scale 0 to 100", "value": 98, "unit": "%"}, {"measurement": "pest or weed control at 125 g/ha", "setting": "Echinocloa crus-galli; 0.125 kg/ha, scale 0 to 100", "value": 100, "unit": "%"}, {"measurement": "pest or weed control at 250 g/ha", "setting": "Echinocloa crus-galli; 0.25 kg/ha, scale 0 to 100", "value": 100, "unit": "%"}, {"measurement": "Herbicidal activity", "setting": "Eriochloa villosa", "value": 95}, {"measurement": "Herbicidal activity", "setting": "Setaria faberi", "value": 100}, {"measurement": "Herbicidal activity", "setting": "Zea mays; ZEAMX (corn, crop), 0.031 kg/ha, scale 0 to 100", "value": 20}, {"measurement": "Herbicidal activity", "setting": "Zea mays; [1]", "value": 30}]}, {"smiles": "CN(c1c(Cl)ccc(C2=C(O)c3ncccc3C(C)(C)S2(=O)=O)c1C(F)(F)F)S(C)(=O)=O", "note": "[I-32, N-[6-chloro-3-(8-hydroxy-5,5-dimethyl-6,6-dioxo-thiopyrano[4,3-b]pyridin-7-yl)-2-(trifluoromethyl)phenyl]-N-methyl-methanesulfonamide]", "values": [{"measurement": "pest or weed control at 31 g/ha", "setting": "Abutilon theophrasti; application rate 0.031 kg/ha", "value": 95, "unit": "%"}, {"measurement": "pest or weed control at 63 g/ha", "setting": "Abutilon theophrasti; application rate 0.063 kg/ha", "value": 90, "unit": "%"}, {"measurement": "pest or weed control at 125 g/ha", "setting": "Abutilon theophrasti; application rate 0.125 kg/ha", "value": 95, "unit": "%"}, {"measurement": "pest or weed control at 250 g/ha", "setting": "Abutilon theophrasti; application rate 0.25 kg/ha", "value": 98, "unit": "%"}, {"measurement": "pest or weed control at 31 g/ha", "setting": "Amaranthus retroflexus; application rate 0.031 kg/ha", "value": 98, "unit": "%"}, {"measurement": "pest or weed control at 63 g/ha", "setting": "Amaranthus retroflexus; application rate 0.063 kg/ha", "value": 98, "unit": "%"}, {"measurement": "pest or weed control at 125 g/ha", "setting": "Amaranthus retroflexus; application rate 0.125 kg/ha", "value": 98, "unit": "%"}, {"measurement": "pest or weed control at 250 g/ha", "setting": "Amaranthus retroflexus; application rate 0.25 kg/ha", "value": 98, "unit": "%"}, {"measurement": "pest or weed control at 31 g/ha", "setting": "Echinocloa crus-galli; application rate 0.031 kg/ha", "value": 90, "unit": "%"}, {"measurement": "pest or weed control at 63 g/ha", "setting": "Echinocloa crus-galli; application rate 0.063 kg/ha", "value": 98, "unit": "%"}, {"measurement": "pest or weed control at 125 g/ha", "setting": "Echinocloa crus-galli; application rate 0.125 kg/ha", "value": 95, "unit": "%"}, {"measurement": "Herbicidal activity", "setting": "Erigeron canadensis; application rate 0.25 kg/ha", "value": 100}, {"measurement": "Herbicidal activity", "setting": "Oryza sativa; crop ORYSA (rice), application rate 0.25 kg/ha", "value": 30}, {"measurement": "Herbicidal activity", "setting": "Zea mays; crop ZEAMX (corn, maize), application rate 0.031 kg/ha", "value": 5}, {"measurement": "Herbicidal activity", "setting": "Zea mays; crop ZEAMX (corn, maize), application rate 0.063 kg/ha", "value": 5}, {"measurement": "Herbicidal activity", "setting": "Zea mays; crop ZEAMX (corn, maize), application rate 0.125 kg/ha", "value": 15}]}]}
